Experimental data as given in patent US9481654B2, “Compositions and methods for inhibition of the JAK pathway” (Rigel Pharmaceuticals, Inc., priority 2006, dated 2016).

Experiments:
Format in all cases: cell-based
[1] = test system: IFNγ induced ICAM-1 (CD54) up-regulation in U937 human monocytic cells (JAK/Stat pathway); assay: U937 IFNγ ICAM1 FACS Assay; conditions: Table III Example 6, 10 ng/mL IFNγ, 18-24 hours
Description: A549 lung epithelial cells and U937 cells up-regulate ICAM-1 (CD54) surface expression in response to a variety of different stimuli. Therefore, using ICAM-1 expression as readout, test compound effects on different signaling pathways can be assessed in the same cell type. Stimulation with IL-1β through the IL-1β receptor activates the TRAF6/NFκB pathway resulting in up-regulation of ICAM-1. IFNγ induces ICAM-1 up-regulation through activation of the JAK1/JAK2 pathway. The up-regulation of ICAM-1 can be quantified by flow cytometry across a compound dose curve and EC50 values are calculated. Exemplary assays of this type are described in greater detail in Examples 5 and 6. U937 human monocytic cells up-regulate ICAM-1 (CD54) surface expression in response to a variety of different stimuli. Therefore, using ICAM-1 expression as readout, compound effects on different signaling pathways can be assessed in the same cell type. IFNγ up-regulates ICAM-1 through activation of the JAK/Stat pathway. In this example, the up-regulation of ICAM-1 by IFNγ was assessed. […] The cells were then plated at a concentration of 100,000 cells per 160 μL in 96 well flat bottom plates. The test compounds were then diluted as follows: 10 mM test compound was diluted 1:5 in DMSO (3 μL 10 mM test compound in 12 μL DMSO), followed by a 1:3 serial dilution of test compound in DMSO (6 μL test compound serially diluted into 12 μL DMSO to give 3-fold dilutions). […] For control wells, 4 μL of DMSO was diluted into 76 μL 10% RPMI. […] The cells and compounds were then pre-incubated for 30 minutes at 37° C. with 5% CO2. […] The cells were kept under conditions for stimulation for 18-24 hours at 37° C. with 5% CO2. […] Cells were spun down at 1000 rpm for 5 minutes at 4° C., following which the supernatant was removed. […] The cells were then incubated on ice in the dark for 30 minutes. […] After suspension, the cells were centrifuged at 1000 rpm for 5 min at 4° C. […] Detection was performed using a BD LSR I System Flow Cytometer, purchased from BD Biosciences of San Jose, Calif. The live cells were gated for live scatter and the geometric mean of ICAM-APC was measured (Becton-Dickinson CellQuest software version 3.3, Franklin Lakes, N.J.). Both % live cells and ICAM-1 expression was analyzed. The assays for the test compounds were carried out in parallel with a control compound of known activity.

[2] = test system: IL-4 stimulated CD23 upregulation in human Ramos B cells (JAK-1/JAK-3, Stat-6); assay: Assay for Ramos B-Cell Line Stimulated with IL-4 (CD23 upregulation, FACS); conditions: Table III Example 3
Procedure, shortened: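 Flow cytometry of CD23 staining after 20-24 h IL-4 stimulation (50 units/mL final) of human Ramos B cells in RPMI with 5% serum. Cells, 5×10^4 per point, received compound or DMSO vehicle for 1 h at 37° C prior to stimulation.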

[3] = test system: primary human T-cells (IL-2 induced proliferation, JAK-1/JAK-3, Stat-5); assay: Primary Human T-Cell Proliferation Assay Stimulated with IL-2 (CellTiter-Glo); conditions: Table III Example 4
Method: In this assay, primary human T-cells derived from peripheral blood and pre-activated through stimulation of the T-cell receptor and CD28, proliferate in culture in response to the cytokine Interleukin-2 (IL-2). This proliferative response is dependent on the activation of JAK1 and JAK3 tyrosine kinases, which phosphorylate and activate the transcription factor Stat-5. The primary human T-cells are incubated with the 2,4-pyrimidinediamine compounds in the presence of IL-2 for 72 hours, and at the assay endpoint intracellular ATP concentrations are measured to assess cell viability. A reduction in cell proliferation compared to control conditions is indicative of inhibition of the JAK kinase pathway.
Primary human T-cells derived from peripheral blood and pre-activated through stimulation of the T-cell receptor and CD28 proliferate in vitro in response to the cytokine Interleukin-2 (IL-2). This proliferative response is dependent on the activation of JAK-1 and JAK-3 tyrosine kinases, which phosphorylate and activate the transcription factor Stat-5.
Human primary T cells were prepared as follows. […] The lymphocytes at the serum: ficoll interface were recovered and washed twice with 5 volumes of PBS. […] The primary T-cells were stimulated for 3 to 4 days, then transferred to a fresh flask and maintained in RPMI with 10% FBS and 40 U/mL IL-2.
Primary T-cells were washed twice with PBS to remove the IL-2 and resuspended in Yssel's medium at 2×10^6 cells/mL. 50 μL of cell suspension containing 80 U/mL IL-2 was added to each well of a flat bottom 96 well black plate. For the unstimulated control, IL-2 was omitted from the last column on the plate. […] 50 μL of 2× compound was added per well in duplicate and the cells were allowed to proliferate for 72 hours at 37° C.
Proliferation was measured using CellTiter-Glo® Luminescent Cell Viability Assay (Promega), which determines the number of viable cells in culture based on quantitation of the ATP present, as an indicator of metabolically active cells. The substrate was thawed and allowed to come to room temperature. After mixing the Cell Titer-Glo reagent and diluent together, 100 μL was added to each well. The plates were mixed on an orbital shaker for two minutes to induce lysis and incubated at room temperature for an additional ten minutes to allow the signal to equilibrate.

Question: Which results are given for `C#CCNS(=O)(=O)Cc1cccc(Nc2nc(Nc3cccc(S(N)(=O)=O)c3)ncc2F)c1` [Compound I-3, N2-(3-Aminosulfonylphenyl)-5-fluoro-N4-[3-(prop-2-ynylaminosulfonylmethyl)phenyl]-2,4-pyrimidinediamine]?
Answer: IC50 ([1]; Homo sapiens, U-937): 4530 nM; IC50 ([2]; Homo sapiens, Ramos): 227 nM; IC50 ([3]; Homo sapiens, T-cell): 458 nM

Question: `CCS(=O)(=O)NCc1ccc(Nc2nc(Nc3ccc(S(N)(=O)=O)cc3)ncc2F)cc1` [Compound I-8, N2-(4-aminosulfonyl)phenyl-N4-(4-ethylsulfonylaminomethyl)phenyl-5-fluoro-2,4-pyrimidinediamine] was tested. Which IC50 [1] did it give?
Answer: 3250 nM

Question: What about the IC50 [2] of the same compound?
Answer: 235 nM

Question: And the IC50 [3]?
Answer: 275 nM

Question: For `CCS(=O)(=O)NCc1ccc(Nc2nc(Nc3cccc(S(N)(=O)=O)c3)ncc2F)cc1` [Compound I-9, N2-(3-aminosulfonyl)phenyl-N4-(4-ethylsulfonylaminomethyl)phenyl-5-fluoro-2,4-pyrimidinediamine], which IC50 [1] is on record?
Answer: 993 nM

Question: And the IC50 [2]?
Answer: 80.1 nM

Question: What about the IC50 [3] of the same compound?
Answer: 70.2 nM

Question: Which results are given for `CCS(=O)(=O)NCc1cccc(Nc2nc(Nc3ccc(S(N)(=O)=O)cc3)ncc2F)c1` [Compound I-11, N2-(4-aminosulfonyl)phenyl-N4-(3-ethylsulfonylaminomethyl)phenyl-5-fluoro-2,4-pyrimidinediamine]?
Answer: IC50 [1]: 2790 nM; IC50 [2]: 250 nM; IC50 [3]: 588 nM

Question: What does the source list for `CCS(=O)(=O)NCCc1ccc(Nc2nc(Nc3ccc(S(N)(=O)=O)cc3)ncc2F)cc1` [Compound I-14, N2-(4-aminosulfonyl)phenyl-N4-[4-(2-ethylsulfonylamino)ethyl]phenyl-5-fluoro-2,4-pyrimidinediamine]?
Answer: IC50 [1]: 5270 nM; IC50 [2]: 144 nM; IC50 [3]: 835 nM

Question: What does the source list for `CCS(=O)(=O)NCCc1ccc(Nc2nc(Nc3cccc(S(N)(=O)=O)c3)ncc2F)cc1` [Compound I-15, N2-(3-aminosulfonyl)phenyl-N4-[4-(2-ethylsulfonylamino)ethyl]phenyl-5-fluoro-2,4-pyrimidinediamine]?
Answer: IC50 [1]: 3110 nM; IC50 [2]: 65.8 nM; IC50 [3]: 184 nM

Question: `CCCN(Cc1ccc(Nc2nc(Nc3cccc(S(N)(=O)=O)c3)ncc2F)cc1)S(=O)(=O)CC` [Compound I-18, N2-(3-aminosulfonyl)phenyl-N4-[4-(N-ethylsulfonyl-N-propylamino)methyl]phenyl-5-fluoro-2,4-pyrimidinediamine] was tested. Which IC50 [1] did it give?
Answer: 1290 nM

Question: And the IC50 [2]?
Answer: 107 nM

Question: What about the IC50 [3] of the same compound?
Answer: 272 nM

Question: How did the IC50 [1] turn out when `CCCN(Cc1ccc(Nc2nc(Nc3ccc(C)c(S(N)(=O)=O)c3)ncc2F)cc1)S(=O)(=O)CC` [Compound I-19, N2-(3-aminosulfonyl-4-methyl)phenyl-N4-[4-(N-ethylsulfonyl-N-propylamino)methyl]phenyl-5-fluoro-2,4-pyrimidinediamine] was run?
Answer: 1640 nM

Question: And the IC50 [2]?
Answer: 148 nM

Question: And the IC50 [3]?
Answer: 494 nM

Question: Which results are given for `CCS(=O)(=O)NCc1ccc(Nc2nc(Nc3ccc(S(N)(=O)=O)cc3)ncc2C)cc1` [Compound I-20, N2-(4-aminosulfonyl)phenyl-N4-(4-ethylsulfonylaminomethyl)phenyl-5-methyl-2,4-pyrimidinediamine]?
Answer: IC50 [1]: 621 nM; IC50 [2]: 73.6 nM; IC50 [3]: 46.1 nM

Question: With `CCS(=O)(=O)NCc1ccc(Nc2nc(Nc3ccc(C)c(S(N)(=O)=O)c3)ncc2C)cc1` [Compound I-22, N2-(3-aminosulfonyl-4-methyl)phenyl-N4-(4-ethylsulfonylaminomethyl)phenyl-5-methyl-2,4-pyrimidinediamine] as the compound, how does the IC50 [1] read?
Answer: 207 nM

Question: What about the IC50 [2] of the same compound?
Answer: 25.9 nM

Question: What about the IC50 [3] of the same compound?
Answer: 82.2 nM

Question: With `NS(=O)(=O)c1ccc(Nc2ncc(F)c(Nc3ccc(CNS(=O)(=O)C4CC4)cc3)n2)cc1` [Compound I-23, N2-(4-aminosulfonyl)phenyl-N4-(4-cyclopropylsulfonylaminomethyl)phenyl-5-fluoro-2,4-pyrimidinediamine] as the compound, how does the IC50 [1] read?
Answer: 3850 nM

Question: And the IC50 [2]?
Answer: 126 nM

Question: And the IC50 [3]?
Answer: 198 nM

Question: `NS(=O)(=O)c1cccc(Nc2ncc(F)c(Nc3ccc(CNS(=O)(=O)C4CC4)cc3)n2)c1` [Compound I-24, N2-(3-aminosulfonyl)phenyl-N4-(4-cyclopropylsulfonylaminomethyl)phenyl-5-fluoro-2,4-pyrimidinediamine] was tested. Which IC50 [1] did it give?
Answer: 508 nM

Question: And the IC50 [2]?
Answer: 59.2 nM

Question: What about the IC50 [3] of the same compound?
Answer: 32 nM

Question: With `Cc1ccc(Nc2ncc(F)c(Nc3ccc(CNS(=O)(=O)C4CC4)cc3)n2)cc1S(N)(=O)=O` [Compound I-25, N2-(3-aminosulfonyl-4-methyl)phenyl-N4-(4-cyclopropylsulfonylaminomethyl)phenyl-5-fluoro-2,4-pyrimidinediamine] as the compound, how does the IC50 [1] read?
Answer: 363 nM

Question: And the IC50 [2]?
Answer: 69 nM

Question: And the IC50 [3]?
Answer: 63.9 nM

Question: `CCS(=O)(=O)N[C@@H](C)c1ccc(Nc2nc(Nc3ccc(C)c(S(N)(=O)=O)c3)ncc2F)cc1` [Compound I-28, N2-(3-aminosulfonyl-4-methyl)phenyl-N4-[4-(1S-ethylsulfonylamino)ethyl]phenyl-5-fluoro-2,4-pyrimidinediamine] was tested. Which IC50 [1] did it give?
Answer: 1110 nM

Question: What about the IC50 [2] of the same compound?
Answer: 115 nM

Question: And the IC50 [3]?
Answer: 376 nM

Question: What does the source list for `CCS(=O)(=O)N[C@H](C)c1ccc(Nc2nc(Nc3ccc(C)c(S(N)(=O)=O)c3)ncc2F)cc1` [Compound I-31, N2-(3-aminosulfonyl-4-methyl)phenyl-N4-[4-(1R-ethylsulfonylamino)ethyl]phenyl-5-fluoro-2,4-pyrimidinediamine]?
Answer: IC50 [1]: 1020 nM; IC50 [2]: 104 nM; IC50 [3]: 283 nM

Question: Which results are given for `NS(=O)(=O)c1cccc(Nc2ncc(F)c(Nc3cccc(CNS(=O)(=O)C4CC4)c3)n2)c1` [Compound I-33, N2-(3-aminosulfonyl)phenyl-N4-(3-cyclopropylsulfonylaminomethyl)phenyl-5-fluoro-2,4-pyrimidinediamine]?
Answer: IC50 [1]: 1410 nM; IC50 [2]: 102 nM; IC50 [3]: 314 nM

Question: What does the source list for `NS(=O)(=O)c1cccc(Nc2ncc(F)c(Nc3ccc(CNS(=O)(=O)c4cccs4)cc3)n2)c1` [Compound I-36, N2-(3-aminosulfonyl)phenyl-5-fluoro-N4-[4-(thiophen-2-yl)sulfonylaminomethyl]phenyl-2,4-pyrimidinediamine]?
Answer: IC50 [1]: 326 nM; IC50 [2]: 40.8 nM; IC50 [3]: 63.9 nM

Question: `CCS(=O)(=O)NCCc1ccc(Nc2nc(Nc3ccc(S(N)(=O)=O)cc3)ncc2C)cc1` [Compound I-38, N2-(4-aminosulfonyl)phenyl-N4-[4-(2-ethylsulfonylamino)ethyl]phenyl-5-methyl-2,4-pyrimidinediamine] was tested. Which IC50 [1] did it give?
Answer: 855 nM

Question: And the IC50 [2]?
Answer: 122 nM

Question: What about the IC50 [3] of the same compound?
Answer: 190 nM
